Reference: paper PMC7539012, “Hyperphosphorylated tau aggregation and cytotoxicity modulators screen identified prescription drugs linked to Alzheimer's disease and cognitive functions” (Scientific Reports, 2020)
Structures can show the parent of a compound that is named as a salt.

tested on: T1, 1N4R p-tau; assay: p-tau aggregation modulator screen of 1280-compound library (ThS fluorescence net change over 16 h); format: biochemical; set-up: key to PTAI>3SD: *: PTAI>3SD; settings: not given;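 for ThS net change: 30 µM compound with 6 µM p-tau over 16 h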
T1 construct: made in house; host or cells: E. coli (PIMAX system)

| Molecule | ThS net change |
| --- | --- |
| CCN(CC)CCOC(=O)C1(c2ccc([N+](=O)[O-])cc2)CCCC1.Cl [Nitrocaramiphen hydrochloride] | 435 |
| NC(=O)OCCCc1ccccc1 [Phenprobamate] | 323 |
| CN[C@H](CC(C)C)C(=O)N[C@H]1C(=O)N[C@@H](CC(N)=O)C(=O)N[C@H]2C(=O)N[C@H]3C(=O)N[C@H](C(=O)N[C@H](C(=O)O)c4cc(O)cc(O)c4-c4cc3ccc4O)[C@H](O)c3ccc(c(Cl)c3)Oc3cc2cc(c3O[C@@H]2O[C@H](CO)[C@@H](O)[C@H](O)[C@H]2O[C@H]2C[C@](C)(N)[C@H](O)[C@H](C)O2)Oc2ccc(cc2Cl)[C@H]1O [Vancomycin hydrochloride] | 408 |
| Beta-Escin | 471 |
| CCC(C)(C)c1ccc(CC(C)CN2C[C@@H](C)O[C@@H](C)C2)cc1 (stereo partly drawn) [Amorolfine hydrochloride] | 413 |
| C=C(NC(=O)C(=C)NC(=O)c1csc(C2=N[C@@H]3c4csc(n4)[C@H]4NC(=O)c5csc(n5)[C@H]([C@](C)(O)[C@@H](C)O)NC(=O)[C@H]5CSC(=N5)/C(=C/C)NC(=O)[C@H]([C@@H](C)O)NC(=O)c5csc(n5)[C@]3(CC2)NC(=O)[C@H](C)NC(=O)C(=C)NC(=O)[C@H](C)NC(=O)[C@H]([C@@H](C)CC)N[C@@H]2C=Cc3c([C@H](C)O)cc(nc3[C@H]2O)C(=O)O[C@@H]4C)n1)C(N)=O [Thiostrepton] | 503 |
| CC1(C)[C@H](C(=O)O)N2C(=O)C[C@H]2S1(=O)=O [Sulbactam] | 463 |

same assay, conditions: 1280-compound library screen; ThS fluorescence net change over 16 h

| Molecule | ThS net change |
| --- | --- |
| CN1C2CCCC1CC(NC(=O)c1nn(C)c3ccccc13)C2 (stereo not drawn) [Granisetron] | 399 |
| CC(N/C(=N\C#N)Nc1ccncc1)C(C)(C)C (stereo not drawn) [Pinacidil] | 391 |
| Nc1nc(Cl)nc2c1ncn2[C@H]1C[C@H](O)[C@@H](CO)O1 [Cladribine] | 399 |
| Nc1ccn([C@H]2CC[C@@H](CO)O2)c(=O)n1 [Zalcitabine] | 410 |
| CCC(=O)O[C@]1(C(=O)CCl)[C@@H](C)C[C@H]2[C@@H]3CCC4=CC(=O)C=C[C@]4(C)[C@@]3(F)[C@@H](O)C[C@@]21C [Clobetasol propionate] | 409 |
| CC1CNc2c(cccc2S(=O)(=O)N[C@@H](CCCNC(=N)N)C(=O)N2CC[C@@H](C)C[C@@H]2C(=O)O)C1 (stereo partly drawn) [Argatroban] | 388 |
| Cc1nc2ccccn2c(=O)c1CCN1CCC(C(=O)c2ccc(F)cc2)CC1 [Pirenperone] | 388 |
| Nc1nc(=O)c2nc(CNc3ccc(C(=O)N[C@@H](CCC(=O)O)C(=O)O)cc3)cnc2[nH]1 [Folic acid] | 398 |
| N=C(N)N/N=C/c1c(Cl)cccc1Cl [Guanabenz acetate] | 405 |
| CC(C)Cc1ccc([C@H](C)C(=O)O)cc1 [S-(+)-ibuprofen] | 406 |
| CN(C)CCOC1=Cc2ccccc2Sc2ccc(Cl)cc21 [Zotepine] | 388 |
| Cc1cccc(C)c1OCC(C)N (stereo not drawn) [Mexiletine hydrochloride] | 381 |
| CC(=O)[C@H]1CC[C@H]2[C@@H]3C[C@H](C)C4=CC(=O)CC[C@]4(C)[C@H]3[C@@H](O)C[C@]12C [Medrysone] | 388 |
| Nc1nc(O)c2ncn(COC(CO)CO)c2n1 [Ganciclovir] | 404 |
| C[N+]12CCC(CC1)C(OC(=O)C(O)(c1ccccc1)c1ccccc1)C2 (stereo not drawn) [Clidinium bromide] | 389 |
| [H]/N=C(\N/C(=N/[H])Nc1ccc(Cl)cc1)NC(C)C [Proguanil hydrochloride] | 389 |
| N=C(N)NCc1cccc(I)c1.O=S(=O)(O)O [Iobenguane sulfate] | 411 |

same assay, conditions: 1280-compound library screen; […]

| Molecule | ThS net change |
| --- | --- |
| C[C@H](N)[C@H](O)c1ccc(O)c(O)c1 [Levonordefrin] | 387 |
| Molsidomine | 401 |
| COc1ccc(OC)c(C(O)CNC(=O)CN)c1 (stereo not drawn) [Midodrine hydrochloride] | 385 |
| CCC1(CC)C(=O)C=CNC1=O [Pyrithyldione] | 404 |
| O=C(O)CCCC[C@@H]1SC[C@@H]2NC(=O)N[C@@H]21 [Biotin] | 380 |
| CCN(CC)CCOc1ccc(/C(=C(/Cl)c2ccccc2)c2ccccc2)cc1.O=C(O)CC(O)(CC(=O)O)C(=O)O [Clomiphene citrate (Z,E)] | 409 |
| C#C[C@]1(O)CC[C@H]2[C@@H]3CCC4=CC(=O)CCC4=C3C=C[C@@]21CC [Gestrinone] | 397 |

same assay, conditions: flag: p-tau aggregation inhibitor, ThS net change more than 3 SD from mean

| Molecule | PTAI>3SD |
| --- | --- |
| COc1cc(-c2ccc(/N=N/c3ccc4c(S(=O)(=O)[O-])cc(S(=O)(=O)[O-])c(N)c4c3O)c(OC)c2)ccc1/N=N/c1ccc2c(S(=O)(=O)[O-])cc(S(=O)(=O)[O-])c(N)c2c1O.[Na+].[Na+].[Na+].[Na+] [Chicago sky blue 6B] | * |
| CN1CCCC(n2nc(Cc3ccc(Cl)cc3)c3ccccc3c2=O)CC1 (stereo not drawn) [Azelastine HCl] | * |

same assay, conditions: library screen, ThS fluorescence net change over 16 h with p-tau

| Molecule | ThS net change |
| --- | --- |
| COC(=O)C1=C(C)NC(C)=C(C(=O)O[C@@H]2CCCN(Cc3ccccc3)C2)[C@@H]1c1cccc([N+](=O)[O-])c1.Cl (racemic) [Benidipine hydrochloride] | 259 |
| COc1cc(-c2ccc(/N=N/c3ccc4c(S(=O)(=O)[O-])cc(S(=O)(=O)[O-])c(N)c4c3O)c(OC)c2)ccc1/N=N/c1ccc2c(S(=O)(=O)[O-])cc(S(=O)(=O)[O-])c(N)c2c1O.[Na+].[Na+].[Na+].[Na+] [Chicago sky blue 6B] | 11 |
| O=C(CCCN1CCC2(CC1)C(=O)NCN2c1ccccc1)c1ccc(F)cc1 [Spiperone] | 313 |
| CN1CCN(CCCN2c3ccccc3Sc3ccc(S(=O)(=O)N(C)C)cc32)CC1.CS(=O)(=O)O.CS(=O)(=O)O [Thioproperazine dimesylate] | 314 |
| CC1CC(OC(=O)c2ccccc2O)CC(C)(C)C1 (stereo not drawn) [Homosalate] | 279 |
| CN1CCCC(n2nc(Cc3ccc(Cl)cc3)c3ccccc3c2=O)CC1 (stereo not drawn) [Azelastine HCl] | 0 |
| CCN(CC)CCOC(=O)C(c1ccccc1)c1ccccc1 [Adiphenine hydrochloride] | 318 |

same assay, conditions: p-tau aggregation modulator screen of 1280-compound library; ThS fluorescence net change

| Molecule | ThS net change |
| --- | --- |
| CNCCC=C1c2ccccc2C=Cc2ccccc21 [Norcyclobenzaprine] | 372 |
| Nc1nc(=O)n([C@@H]2CS[C@H](CO)O2)cc1F [(-)-Emtricitabine] | 359 |
| Clc1cc(Cl)c(OCC#CI)cc1Cl [Haloprogin] | 374 |
| CC(C)NCC(O)COc1ccc(CCOCC2CC2)cc1 (stereo not drawn) [Betaxolol hydrochloride] | 373 |
| CC(C)C(=O)Nc1ccc([N+](=O)[O-])c(C(F)(F)F)c1 [Flutamide] | 331 |
| Cc1cnc(C(=O)NCCc2ccc(S(=O)(=O)NC(=O)NC3CCCCC3)cc2)cn1 [Glipizide] | 371 |
| O=C(O)CCC(=O)c1ccc(-c2ccccc2)cc1 [Fenbufen] | 368 |
| CCN(CC)C(C)CN1c2ccccc2Sc2ccccc21 (stereo not drawn) [Ethopropazine hydrochloride] | 336 |
| C[C@H]1C[C@@H]2[C@H]([C@@H](O)C[C@@]3(C)[C@H]2CC[C@]3(O)C(=O)CO)[C@@]2(C)C=CC(=O)C=C12 [Methylprednisolone, 6-alpha] | 340 |
| CNC[C@H](O)[C@@H](O)[C@H](O)[C@H](O)CO [Meglumine] | 368 |
| CC(CN(C)C)CN1c2ccccc2Sc2ccccc21.CC(CN(C)C)CN1c2ccccc2Sc2ccccc21.O=C(O)C(O)C(O)C(=O)O (stereo not drawn) [Trimeprazine tartrate] | 354 |
| CNCC(O)c1ccc(OC(=O)C(C)(C)C)c(OC(=O)C(C)(C)C)c1 (stereo not drawn) [Dipivefrin hydrochloride] | 357 |
| COC(=O)Nc1nc2cc(C(=O)c3ccc(F)cc3)ccc2[nH]1 [Flubendazol] | 332 |
| N=C(N)NCC1COC2(CCCCC2)O1.N=C(N)NCC1COC2(CCCCC2)O1.O=S(=O)(O)O (stereo not drawn) [Guanadrel sulfate] | 373 |
| CC(C)[N+](C)(CCOC(=O)C1c2ccccc2Oc2ccccc21)C(C)C [Propantheline bromide] | 373 |
| NS(=O)(=O)c1cc2c(cc1C(F)(F)F)NC(Cc1ccccc1)NS2(=O)=O (stereo not drawn) [Bendroflumethiazide] | 357 |

same assay, conditions: p-tau aggregation modulator screen of the compound library, ThS fluorescence net change

| Molecule | ThS net change |
| --- | --- |
| CC[C@H](C)C(=O)O[C@H]1CCC=C2C=C[C@H](C)[C@H](CC[C@@H]3C[C@@H](O)CC(=O)O3)[C@H]21 [Mevastatin] | 497 |
| CC(C)(C)NC[C@H](O)COc1ccccc1C1CCCC1 [Penbutolol sulfate] | 457 |
| CC(=O)OCC(=O)[C@@]12N=C(C)O[C@@H]1C[C@H]1[C@@H]3CCC4=CC(=O)C=C[C@]4(C)[C@H]3[C@@H](O)C[C@@]12C [Deflazacort] | 420 |
| CS(=O)(=O)O.Cc1ccc2c(c1)c1c3n2CCNC3CCC1 (stereo not drawn) [Pirlindole mesylate] | 461 |
| CCOC(=O)Nc1ccc2c(c1)N(C(=O)CCN1CCOCC1)c1ccccc1S2 [Moricizine hydrochloride] | 473 |
| CCOC(=O)[C@H](CCc1ccccc1)N[C@@H](C)C(=O)N1[C@H](C(=O)O)C[C@@H]2CCC[C@@H]21 [Ramipril] | 436 |
| CC(C)(C)NC[C@H](O)COc1nsnc1N1CCOCC1.O=C(O)/C=C\C(=O)O [Timolol maleate salt] | 414 |
| CCCCC1C(=O)N(c2ccccc2)N(c2ccccc2)C1=O [Phenylbutazone] | 413 |
| Cc1ccnc(NS(=O)(=O)c2ccc(N)cc2)n1 [Sulfamerazine] | 421 |
| CN(C/C=C/c1ccccc1)Cc1cccc2ccccc12 [Naftifine hydrochloride] | 539 |
| COc1cc([C@@H]2c3cc4c(cc3[C@@H](O[C@@H]3O[C@@H]5CO[C@@H](C)O[C@H]5[C@H](O)[C@H]3O)[C@H]3COC(=O)[C@H]23)OCO4)cc(OC)c1O [Etoposide] | 413 |
| O=C1NCCN1CCN1CCC(c2cn(-c3ccc(F)cc3)c3ccc(Cl)cc23)CC1 [Sertindole] | 434 |
| Cl.Cl.Fc1ccc(C(OCCN2CCN(CCCc3ccccc3)CC2)c2ccc(F)cc2)cc1 [GBR 12909 dihydrochloride] | 515 |
| COc1ccccc1N1CCN(CC(O)COc2cccc3ccccc23)CC1.Cl.Cl (stereo not drawn) [Naftopidil dihydrochloride] | 453 |
| COc1cc2c(cc1OC)C(=O)C(CC1CCN(Cc3ccccc3)CC1)C2 (stereo not drawn) [Donepezil hydrochloride] | 435 |
| Nc1ccn([C@@H]2CS[C@H](CO)O2)c(=O)n1 [Lamivudine] | 424 |
